biological target: T1, GST-RIPK1 (recombinant GST-RIPK1 kinase domain (residues 1-327)) (Homo sapiens, UniProt Q13546); assay: RIPK1-ADP-Glo enzymatic assay; format: biochemical; details: 25 nM GST-RIPK1, 300 μM ATP, 3 μM dephosphorylated-MBP; 30 minutes pre-incubation, 150 minutes reaction; ten-point titration
T1 construct: recombinant GST-RIPK1 kinase domain (residues 1-327) enzyme; made in house; host or cells: baculovirus-transfected Sf21 insect cells
T1 sequence (Q13546 1-327): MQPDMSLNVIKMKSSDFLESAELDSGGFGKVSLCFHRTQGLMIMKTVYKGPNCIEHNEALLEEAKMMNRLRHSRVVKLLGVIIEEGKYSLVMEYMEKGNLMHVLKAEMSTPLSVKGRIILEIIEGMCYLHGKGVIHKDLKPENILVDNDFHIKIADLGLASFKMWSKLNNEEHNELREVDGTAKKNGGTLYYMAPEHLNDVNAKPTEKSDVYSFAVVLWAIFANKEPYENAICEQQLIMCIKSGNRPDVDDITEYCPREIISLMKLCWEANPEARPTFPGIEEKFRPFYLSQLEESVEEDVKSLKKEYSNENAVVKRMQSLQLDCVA
Outline: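 Ten-point 1:3 titrations from 100000 nM, 1% DMSO, were preincubated 30 min with 25 nM GST-RIPK1 (1-327) before starting with 300 μM ATP plus 3 μM dephosphorylated MBP; 150 min reaction. ADP-Glo luminescence measured ATP-to-ADP conversion; EC50 by four-parameter sigmoidal regression.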

IC50 [nM]	SMILES
24	CC(C)(C(=O)N1C[C@@H]2C[C@H]1c1cncc(C#N)c1S2)C(F)F [Compound 4-1, (2S,5S)-4-(3,3-difluoro-2,2-dimethylpropanoyl)-2,3,4,5-tetrahydro-2,5-methanopyrido[3,4-f][1,4]thiazepine-9-carbonitrile]
15	N#Cc1cncc2c1S[C@H]1C[C@@H]2N(C(=O)C23CCC(C(F)(F)F)(CC2)C3)C1 [Compound 4-2, (2S,5S)-4-(4-(trifluoromethyl)bicyclo[2.2.1]heptane-1-carbonyl)-2,3,4,5-tetrahydro-2,5-methanopyrido[3,4-f][1,4]thiazepine-9-carbonitrile]
12	N#Cc1cncc2c1S[C@H]1C[C@@H]2N(C(=O)C23CCC(F)(CC2)C3)C1 [Compound 4-3, (2S,5S)-4-(4-fluorobicyclo[2.2.1]heptane-1-carbonyl)-2,3,4,5-tetrahydro-2,5-methanopyrido[3,4-f][1,4]thiazepine-9-carbonitrile]
42	CC(C)(CC#N)C(=O)N1C[C@@H]2C[C@H]1c1cncc(C#N)c1S2 [Compound 4-4, (2S,5S)-4-(3-cyano-2,2-dimethylpropanoyl)-2,3,4,5-tetrahydro-2,5-methanopyrido[3,4-f][1,4]thiazepine-9-carbonitrile]
99	CC(C)(C#N)C(=O)N1C[C@@H]2C[C@H]1c1cncc(C#N)c1S2 [Compound 4-5, (2S,5S)-4-(2-cyano-2-methylpropanoyl)-2,3,4,5-tetrahydro-2,5-methanopyrido[3,4-f][1,4]thiazepine-9-carbonitrile]
49	N#Cc1cncc2c1S[C@H]1C[C@@H]2N(C(=O)C2(C#N)CCC2)C1 [Compound 4-6, (2S,5S)-4-(1-cyanocyclobutane-1-carbonyl)-2,3,4,5-tetrahydro-2,5-methanopyrido[3,4-f][1,4]thiazepine-9-carbonitrile]
27	N#Cc1cncc2c1S[C@H]1C[C@@H]2N(C(=O)C2(C#N)CCCC2)C1 [Compound 4-7, (2S,5S)-4-(1-cyanocyclopentane-1-carbonyl)-2,3,4,5-tetrahydro-2,5-methanopyrido[3,4-f][1,4]thiazepine-9-carbonitrile]
117	C[C@]1(C(=O)N2C[C@@H]3C[C@H]2c2cncc(C#N)c2S3)C[C@H](C#N)C1 [Compound 4-8, (2S,5S)-4-((1r,3S)-3-cyano-1-methylcyclobutane-1-carbonyl)-2,3,4,5-tetrahydro-2,5-methanopyrido[3,4-f][1,4]thiazepine-9-carbonitrile]

The next lines start with the molecule.

SMILES	IC50 [nM]
CC(F)(F)C(C)(C)C(=O)N1C[C@@H]2C[C@H]1c1cncc(C#Cc3ccc(F)cc3)c1O2 [Compound 2-123, 3,3-difluoro-1-((25,5S)-9-((4-fluorophenyl)ethynyl)-2,3-dihydro-2,5-methanopyrido[3,4-f][1,4]oxazepin-4(5H)-yl)-2,2-dimethylbutan-1-one]	34
CC(C)(C(=O)N1C[C@@H]2C[C@H]1c1cc(F)cnc1O2)C(F)F [Compound 3-1, 3,3-Difluoro-1-((2S,5S)-7-fluoro-2,3-dihydro-2,5-methanopyrido[3,2-f][1,4]oxazepin-4(5H)-yl)-2,2-dimethylpropan-1-one]	317
CC(F)(F)C(C)(C)C(=O)N1C[C@@H]2C[C@H]1c1cncnc1O2 [Compound 3-2, 1-((5S,8S)-7,8-dihydro-5,8-methanopyrimido[5,4-f][1,4]oxazepin-6(5H)-yl)-3,3-difluoro-2,2-dimethylbutan-1-one]	1210
O=C(N1C[C@@H]2C[C@H]1c1cncnc1O2)C12CCC(F)(CC1)C2 [Compound 3-3, ((5S,8S)-7,8-Dihydro-5,8-methanopyrimido[5,4-f][1,4]oxazepin-6(5H)-yl)(4-fluorobicyclo[2.2.1]heptan-1-yl)methanone]	377
Cc1ncc2c(n1)O[C@H]1C[C@@H]2N(C(=O)C23CCC(F)(CC2)C3)C1 [Compound 3-4, (4-fluorobicyclo[2.2.1]heptan-1-yl)((5S,8S)-2-methyl-7,8-dihydro-5,8-methanopyrimido[5,4-f][1,4]oxazepin-6(5H)-yl)methanone]	1230
N#Cc1cncc2c1OC[C@H]1CC[C@@H]2N1C(=O)C12CCC(F)(CC1)C2 [Compound 5-1, (3R,6S)-11-(4-Fluorobicyclo[2.2.1]heptane-1-carbonyl)-3,4,5,6-tetrahydro-2H-3,6-epiminooxocino[3,2-c]pyridine-10-carbonitrile]	95
N#Cc1cncc2c1OC[C@H]1CC[C@@H]2N1C(=O)C12CCC(C(F)(F)F)(CC1)C2 [Compound 5-2, (3R,6S)-11-(4-(trifluoromethyl)bicyclo[2.2.1]heptane-1-carbonyl)-3,4,5,6-tetrahydro-2H-3,6-epiminooxocino[3,2-c]pyridine-10-carbonitrile]	114

Reference: patent publication US20240228506A1, “RIPK1 INHIBITORS AND METHODS OF USE” (Merck Sharp & Dohme LLC, priority 2021, published 2024)
